Experimental data taken from patent publication US7749972B2, “1-substituted-7-(β-D-glycopyranosyloxy)(aza)indole compound and pharmaceutical containing the same” (Kissei Pharmaceutical Co., Ltd., priority 2005, dated 2010).

Columns and labels:
human SGLT1 = biological target: T1, human SGLT1 (Homo sapiens, UniProt P13866); experiment: Inhibition of methyl-α-D-glucopyranoside (α-MG) uptake in COS-7 cells expressing human SGLT1; type: cell-based; settings: COS-7 cells transiently expressing human SGLT1; 1 mM 14C-α-MG uptake, 37° C., 1 hour
T1 construct: expressed in transfected cells; host or cells: COS-7 cells, transient lipofection (Lipofectamine-2000), vector pcDNA3.1(-)
T1 sequence (P13866 1-664): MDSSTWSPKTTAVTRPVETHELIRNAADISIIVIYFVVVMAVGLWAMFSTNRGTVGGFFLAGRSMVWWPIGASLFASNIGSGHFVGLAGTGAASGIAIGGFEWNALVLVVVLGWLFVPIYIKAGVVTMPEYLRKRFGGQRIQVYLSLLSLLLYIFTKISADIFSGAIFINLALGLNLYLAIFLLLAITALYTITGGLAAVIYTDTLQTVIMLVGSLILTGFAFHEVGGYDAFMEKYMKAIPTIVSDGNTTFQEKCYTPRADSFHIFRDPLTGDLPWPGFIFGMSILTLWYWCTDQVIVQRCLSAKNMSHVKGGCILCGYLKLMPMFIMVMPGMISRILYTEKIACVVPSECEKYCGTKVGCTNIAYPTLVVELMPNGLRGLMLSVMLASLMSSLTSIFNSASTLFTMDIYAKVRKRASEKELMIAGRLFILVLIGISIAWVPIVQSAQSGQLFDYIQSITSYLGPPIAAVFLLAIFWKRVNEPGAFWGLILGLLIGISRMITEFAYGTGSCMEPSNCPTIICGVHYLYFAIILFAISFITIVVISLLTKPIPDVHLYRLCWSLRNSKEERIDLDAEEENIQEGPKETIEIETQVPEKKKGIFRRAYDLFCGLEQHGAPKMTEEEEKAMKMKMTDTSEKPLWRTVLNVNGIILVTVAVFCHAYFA
Method: (§1) Assay for Inhibitory Effects on Human SGLT Activity
1) Cloning and Construction of the Vector Expressing Human SGLT1
(§2) The cDNA library was prepared for PCR amplification by reverse transcription from total RNA derived from human small intestine (Ori gene) using oligo-dT as a primer. Using this cDNA library as a template, the DNA fragment coding 1 to 2005 bp of human SGLT1 (ACCESSION: M24847), which was reported by Hediger et al., was amplified by PCR method and inserted into the multi-cloning site of pcDNA3.1(−) (Invitrogen). The DNA sequence inserted was perfectly matched to the previously reported sequence.
(§3) 3) Preparation of the Cells Expressing Human SGLT1 or SGLT2 […]
(§4) A mixture of non-labeled (Sigma) and ^14C-labeled α-MG (Amersham Pharmacia Biotech) was added to the uptake buffer (pH 7.4; containing 140 mM sodium chloride, 2 mM potassium chloride, […] calcium chloride, 1 mM magnesium chloride, 10 mM 2-[4-(2-hydroxyethyl)-1-piperazinyl]ethane sulfonic acid and 5 mM tris(hydroxymethyl)aminomethane) at the final concentration of 1 mM. […] Radioactivity was measured by means of micro-scintillation counter TopCount (Packard). One hundred % was set to the difference between the uptake in the control group and the basal uptake, and the uptake of methyl α-D-glucopyranoside at each drug concentration was calculated. […]

human SGLT2 = biological target: T2, human SGLT2 (Homo sapiens, UniProt P31639); experiment: Inhibition of methyl-α-D-glucopyranoside (α-MG) uptake in COS-7 cells expressing human SGLT2; type: cell-based; settings: COS-7 cells transiently expressing human SGLT2; 1 mM 14C-α-MG uptake, 37° C., 1 hour
T2 construct: expressed in transfected cells; host or cells: COS-7 cells, transient lipofection (Lipofectamine-2000), vector pcDNA3.1(-)
T2 sequence (P31639 1-672): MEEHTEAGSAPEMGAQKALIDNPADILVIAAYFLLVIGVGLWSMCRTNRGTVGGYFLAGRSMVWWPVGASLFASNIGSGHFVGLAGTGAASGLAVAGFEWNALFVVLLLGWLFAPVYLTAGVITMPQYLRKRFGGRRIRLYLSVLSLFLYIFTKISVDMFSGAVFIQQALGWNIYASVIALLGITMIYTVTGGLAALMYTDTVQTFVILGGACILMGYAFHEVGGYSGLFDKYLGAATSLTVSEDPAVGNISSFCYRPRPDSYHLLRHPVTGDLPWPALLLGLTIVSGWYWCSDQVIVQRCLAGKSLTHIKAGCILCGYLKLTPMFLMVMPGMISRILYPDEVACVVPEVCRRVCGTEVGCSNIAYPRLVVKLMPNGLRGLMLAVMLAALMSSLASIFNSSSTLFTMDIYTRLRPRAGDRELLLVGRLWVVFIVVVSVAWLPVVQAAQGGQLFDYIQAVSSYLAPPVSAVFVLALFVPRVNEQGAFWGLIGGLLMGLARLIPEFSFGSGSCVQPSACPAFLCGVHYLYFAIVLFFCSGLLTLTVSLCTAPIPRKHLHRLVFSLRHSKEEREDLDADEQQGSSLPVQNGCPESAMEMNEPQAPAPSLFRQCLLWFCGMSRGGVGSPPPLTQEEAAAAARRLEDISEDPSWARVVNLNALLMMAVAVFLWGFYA
Method: as §1
2) Cloning and Construction of the Vector Expressing Human SGLT2
as §2, with “human kidney” for “human small intestine”, “coding 2” for “coding 1”, “to 2039” for “to 2005”, “human SGLT2” for “human SGLT1”, “(ACCESSION: M95549, M95299),” for “(ACCESSION: M24847),”, “by R. G. Wells” for “by Hediger”
as §3, §4

Row | IC50 (human SGLT1) [nM] | IC50 (human SGLT2) [nM] | Compound
1 | 235 | – | Cc1ccc(Cn2ccc3cccc(O[C@@H]4O[C@H](CO)[C@@H](O)[C@H](O)[C@H]4O)c32)cc1 [Example 1, 7-(1-β-Glucopyranosyloxy)-1-(4-methylbenzyl)-1H-indole]
2 | – | 66 | OC[C@H]1O[C@@H](Oc2cccc3ccn(CCc4ccccc4)c23)[C@H](O)[C@@H](O)[C@@H]1O [Example 4]
3 | 52 | 16 | OC[C@H]1O[C@@H](Oc2cccc3ccn(CCc4ccc(O)cc4)c23)[C@H](O)[C@@H](O)[C@@H]1O [Example 7, 7-(β-D-Glucopyranosyloxy)-1-[2-(4-hydroxyphenyl)ethyl]-1H-indole]
